US10239871B2, “Compounds and methods for regulating integrins” (ADHAERE PHARMACEUTICALS, INC., priority 2012, dated 2019)

Columns and labels:
[1] = tested on: RAW 264.7 macrophage cells; experiment: Wound healing assay (macrophage migration); format: cell-based, murine; conditions: LPS 100 ng/mL or PMA 100 nM vs unstimulated (DMSO), 48 hours
Experimental: Murine RAW 264.7 macrophage cells were grown in DMEM 10% FBS medium in T75 flasks to 70% confluence. The cells were detached by trypsin treatment for 10 minutes at 37° C. and evenly reseeded in 24 well plates and allowed to attain >70% confluency. A scratch was introduced horizontally across the well using 200 µL tip applying even force throughout the etching and holding the tip at approximately an 80 degree angle. The wells were subsequently washed and fresh medium containing various treatment groups was introduced. The wound was imaged using 10× objective. The cells were allowed to grow for 48 hours and the wound was reimaged at the same field after 48 hours. The average extent of wound closure was evaluated by measuring the width of the wound. The area healed was analyzed using ImageJ software and is expressed as percentage healing after 48 hours.
For FIG. 4B, RAW 264.7 cells were plated in 24-well tissue culture plates (2×10^6 cells/well) and allowed to adhere in complete media for 12 hours. […] Images of the cells in culture were obtained immediately prior to (0 hours) and after the completion of the experiment (48 hours) using an inverted phase contrast microscope attached to a video camera.
Representative data shown here are from a triplicate well experiment from one of at least two to three independent experiments. **p<0.001, ***p<0.0001.

Human macrophages = experiment: TNF-α release from human macrophages; format: cell-based; conditions: n=14
Cl66 cells = experiment: Orthotopic Cl66 mammary adenocarcinoma tumor growth, with or without Taxol; format: in vivo; conditions: BALB/c mice, vs vehicle
Experimental: The syngeneic murine mammary adenocarcinoma cell line Cl66 (moderately metastatic and is related to the highly metastatic 4T1 cell line) was orthotopically introduced in Balb/c animals, by injecting ˜5×10^5 Cl66 cells under the left mammary fat pad of WT BALB/c mice (approx. 8-10 weeks old). The tumor size was measured using calipers every other day until the end of the experiment (approx. 5 weeks). 7-days post implantation, the tumors in all animals became palpable, with an average size of ˜100 mm3. At that time, animals in each group were treated as described. LA1 was administered daily for the first two weeks and then every other day until the end of the experiment. Animals in Group 1 received Saline injections, as control. […] It can also enhance the efficacy of traditional chemotherapy in various cancers, including breast cancer, to produce a synergistic response to the treatment. It can also reduce the incidence and the size of metastases.

patients = conditions: cited from earlier work
[2] = tested on: MAPK signaling (pERK, pJNK) in K562 WT cells; experiment: Western blotting of pERK and pJNK in K562 WT cells; format: cell-based, human; conditions: CD11b/CD18 ligation with fibrinogen, all conditions
Experimental: K562 WT cells were incubated with LA1, LA2, LA15 (15 μM), or fibrinogen (200 μg) in serum-free medium for 1 hour at 37° C. Cell lysates were resolved on 4-12% NuPAGE Bis-Tris SDS-PAGE gels using MES running buffer and transferred to a polyvinylidene difluoride (PVDF) membrane (ThermoScientific) using established protocols. Membranes were incubated with a 1:1,000 dilution of the anti-phospho-protein antibodies (anti phospho-p44/42 MAPK (pERK1/2) antibody (Thr202/Tyr204, Cell Signaling) or anti-phospho-SAPK/JNK (pJNK) antibody (Thr183/Tyr185, Cell Signaling #81E11)), or with an antibody against either total ERK1/2 (p44/42 MARK (Erk1/2), Cell Signaling #137F5) or total JNK (SAPK/JNK, Cell Signaling #56G8) and developed according to the manufacturer's instructions (ThermoScientific). Proteins were quantified by densitometry using ImageJ software. […]
Second, an effect of integrin ligation, macro clustering and redistribution in the plasma membrane is the triggering of outside-in intracellular signaling in cells via various MAPKs. […] In FIGS. 6A-6B, immunoblot results from two independent experiments were quantified using ImageJ software and ratio of phosphorylated protein to total protein was determined. Histograms showing this quantitation for each set are also shown. […] In FIGS. 6C-6D, immunoblot results from two independent experiments were quantified and are also shown, as in 6A and 6B.

CD11b/CD18 = CD11b/CD18 (Homo sapiens, UniProt P11215); experiment: Immunofluorescence microscopy of CD11b/CD18 clustering on K562 WT cells; format: cell-based; set-up: K562 cells stably transfected with plasmid encoding wild-type integrin CD11b/CD18; expressed in transfected cells; conditions: presence of fibrinogen 50 μg/mL
Experimental: To visualize changes upon ligand binding, fibrinogen (50 μg/mL) was also added to the cell suspension media in a second set of incubations. The cells were fixed in suspension and incubated with mAb 184, which is specific for CD11b/CD18, followed by Alexa Fluor 488-conjugated goat antibody against mouse Ig (Sigma). Fluorescence images were recorded with a Leica DMI16000 deconvolution microscope using an HCX APO 40×/0.75 DRY objective with a DCF360FX camera and with Leica LAS-AF software. A 3-dimensional representation of CD11b/CD18 fluorescence intensity and the analysis of the number of CD11b/CD18 clusters per cell was performed using ImageJ software as described. Clustering determination was carried out by counting individual fluorescent peaks that were projected from the basal to the apical side of the cell and were at least 50% above the base line levels. The images presented are representative of at least 20 cells analyzed for each condition from at least three independent experiments.
Therefore, to investigate, a combination of confocal microscopy (to study clustering) and western blotting assays (to study intracellular signaling) using K562 WT cells were used. First, CD11b/CD18 cell-surface distribution and macro clustering was studied under various conditions using confocal microscopy. K562 WT cells in suspension were incubated with various agonists, fixed with paraformaldehyde and the surface expressed CD11b/CD18 was fluorescently stained with anti-CD11b/CD18 mAb 1B4. […] The fluorescence images shown are representative of three independent experiments. […] Also shown below each image is a 3D representation of CD11b fluorescence intensity for selected cells, analyzed in ImageJ In FIG. 5B, data shown are mean±SEM from >40 cells per condition and from >3 independent experiments for each condition. ***p<0.0001, ns=not significant.

Question: With CCCCCCCCCCCCCC(=O)O[C@@H]1[C@@H](C)[C@@]2(O)[C@@H](C=C(CO)C[C@]3(O)C(=O)C(C)=C[C@@H]23)[C@@H]2C(C)(C)[C@]12OC(C)=O [PMA, phorbol-12-myristate-13-acetate, reference compound] as the molecule, how does the “migration of macrophages into the wound area upon stimulation” value [1] read?
Answer: significantly induced the migration of macrophages

Question: With CCOCc1nc2c(N)nc3ccccc3c2n1CC(C)(C)O [R848, reference compound] as the molecule, how does the “TNF-α release, stimulus alone vs macrophages alone” value (Human macrophages) read?
Answer: significantly stimulated TNF-α release

Question: For CC(=O)O[C@H]1C(=O)[C@@]2(C)[C@H]([C@H](OC(=O)c3ccccc3)[C@]3(O)C[C@H](OC(=O)[C@H](O)[C@@H](NC(=O)c4ccccc4)c4ccccc4)C(C)=C1C3(C)C)[C@]1(OC(C)=O)CO[C@@H]1C[C@@H]2O [Taxol, reference compound], which “rate of tumor growth, single agent” value (Cl66 cells) is on record?
Answer: significant reduction in the rate of tumor growth

Question: Which “incidence rate of bradycardia” value (patients) does the source give for CC(=O)O[C@@]12CO[C@@H]1C[C@H](O)[C@@]1(C)C(=O)[C@H](O)C3=C(C)[C@@H](OC(=O)[C@H](O)[C@@H](NC(=O)OC(C)(C)C)c4ccccc4)C[C@@](O)([C@@H](OC(=O)c4ccccc4)[C@H]21)C3(C)C [docetaxel] here?
Answer: 1.7%

Question: Which results are given for fibrinogen [reference compound]?
Answer: phosphorylated ERK (pERK) and phosphorylated JNK (pJNK) [2]: high levels of both pERK and pJNK; CD11b/CD18 macro clustering on cell surface (CD11b/CD18): significant CD11b/CD18 macro clustering
